Data reported in the NIST ThermoML archive (doi:10.1016/j.fluid.2018.07.020).
± gives the expanded uncertainty stated by the source.

Columns and labels:
[1] = Molar enthalpy of transition or fusion; settings: DSC
[2] = for Normal melting temperature: Crystal 1, DTA; for Triple point temperature: Crystal 2, DSC

Row | Molar enthalpy of transition or fusion ([1]; Crystal 1) [kcal/mol] | Molar enthalpy of transition or fusion ([1]; Crystal 2) [kcal/mol] | Normal melting temperature [2] [°C] | Triple point temperature [2] [K] | Structure (SMILES)
1 | 2.32 ± 0.526 | 3.08 ± 0.526 | 160.02 ± 0.71 | 379.9 ± 0.94 | CCCC[P+](CCCC)(CCCC)CCCS(=O)(=O)[O-] [3-(tributylphosphonio)propane-1-sulfonate]
2 | 3.66 ± 0.359 | 2.32 ± 0.335 | 172.88 ± 0.71 | 360.22 ± 0.94 | CC[N+](CC)(CC)CCCS(=O)(=O)[O-] [3-(triethylammonio)propane-1-sulfonate]
3 | 6.79 ± 0.645 |  | 206.74 ± 0.71 |  | CCCCCC[N+](CCCCCC)(CCCCCC)CCCS(=O)(=O)[O-] [3-(trihexylammonio)propane-1-sulfonate]
4 | 4.71 ± 0.55 |  | 173.57 ± 0.71 |  | CCCC[P+](CCCC)(CCCC)CCCCS(=O)(=O)[O-] [4-(tributylphosphonio)butane-1-sulfonate]
5 | 4.31 ± 0.669 | 1.43 ± 0.669 | 199.60 ± 0.71 | 407.51 ± 0.94 | CCCCCC[N+](CCCCCC)(CCCCCC)CCCCS(=O)(=O)[O-] [4-(trihexylammonio)butane-1-sulfonate]
6 | 9.44 ± 0.335 |  | 273.89 ± 0.71 |  | O=S(=O)([O-])CCC[n+]1ccccc1 [[PyC3S]]
